# Measured values from patent US9957263B2, “Bromodomain inhibitors” (AbbVie Inc., priority 2013, dated 2018).
# Experiments:
# [1] = target: BRD4 (BDII_E352-M457) (Homo sapiens (Human), UniProt O60885); experiment: TR-FRET bromodomain binding assay, BRD4 second bromodomain; details: His-tagged BD2, Alexa647-labeled probe 30 nM
# Procedure: (§1) A time-resolved fluorescence resonance energy transfer (TR-FRET) assay was used to determine the affinities of compounds of the Examples listed in Table 1 for each bromodomain of BRD4. His-tagged first (BD1: amino acids K57-E168) and second (BD2: amino acids E352-E168) bromodomains of BRD4 were expressed and purified. An Alexa647-labeled BET-inhibitor was used as the fluorescent probe in the assay.
# (§2) Compound dilution series were prepared in DMSO via a 3-fold serial dilution from 2.5 mM to 42 nM. Compounds were then diluted 6:100 in assay buffer (20 mM Sodium Phosphate, pH 6.0, 50 mM NaCl, 1 mM Ethylenediaminetetraacetic acid disodium salt dihydrate, 0.01% Triton X-100, 1 mM DL-Dithiothreitol) to yield 3× working solutions. Six microliters (μL) of the working solution was then transferred to white, low-volume assay plates (Costar #3673). A 1.5× assay mixture containing His-tagged bromodomain, Europium-conjugated anti-His antibody (Invitrogen PV5596) and the Alexa-647-conjugated probe molecule was also prepared. Twelve μL of this solution were added to the assay plate to reach a final volume of 18 μL. The final concentration of 1× assay buffer contains 2% DMSO, 50 μM-0.85 nM compound, 8 nM His-tagged bromodomain, 1 nM Europium-conjugated anti-His-tag antibody and 100 nM or 30 nM probe (for BDI or BDII, respectively). After a one-hour incubation at room temperature, TR-FRET ratios were determined using an Envision multilabel plate reader (Ex 340, Em […]).
# (§3) TR-FRET data were normalized to the means of 24 no-compound controls (“high”) and 8 controls containing 1 μM un-labeled probe (“low”). Percent inhibition was plotted as a function of compound concentration and the data were fit with the 4 parameter logistic equation to obtain IC50s. Inhibition constants (Ki) were calculated from the IC50s, probe Kd and probe concentration. Typical Z′ values were between 0.65 and 0.75. The minimum significant ratio was determined to evaluate assay reproducibility (Eastwood et al., (2006) J Biomol Screen, 11: 253-261). The MSR was determined to be 2.03 for BDI and 1.93 for BDII, and a moving MSR (last six run MSR overtime) for both BDI and BDII was typically <3.
# [2] = target: BRD4 (BDI_K57-E168) (Homo sapiens (Human), UniProt O60885); experiment: TR-FRET bromodomain binding assay, BRD4 first bromodomain; details: His-tagged BD1, Alexa647-labeled probe 100 nM
# Procedure: as §1, §2, §3
Structure (SMILES),Ki [1] [nM],Ki [2] [nM]
"Cn1cc(-c2cc(S(C)(=O)=O)ccc2Oc2cccc(NS(=O)(=O)C3CC3)c2)c2cc[nH]c2c1=O [Example 49, N-{3-[2-(6-methyl-7-oxo-6,7-dihydro-1H-pyrrolo[2,3-c]pyridin-4-yl)-4-(methylsulfonyl)phenoxy]phenyl}cyclopropanesulfonamide]",1,4.4
"Cn1cc(-c2cc(S(C)(=O)=O)ccc2Oc2cccc(NS(=O)(=O)c3cccc([N+](=O)[O-])c3)c2)c2cc[nH]c2c1=O [Example 51, N-{3-[2-(6-methyl-7-oxo-6,7-dihydro-1H-pyrrolo[2,3-c]pyridin-4-yl)-4-(methylsulfonyl)phenoxy]phenyl}-3-nitrobenzenesulfonamide]",3,5
"Cc1cc(F)ccc1S(=O)(=O)Nc1cccc(Oc2ccc(S(C)(=O)=O)cc2-c2cn(C)c(=O)c3[nH]ccc23)c1 [Example 52, 4-fluoro-2-methyl-N-{3-[2-(6-methyl-7-oxo-6,7-dihydro-1H-pyrrolo[2,3-c]pyridin-4-yl)-4-(methylsulfonyl)phenoxy]phenyl}benzenesulfonamide]",1.1,2
"Cn1cc(-c2cc(S(C)(=O)=O)ccc2Oc2cccc(NS(=O)(=O)c3cccc(C#N)c3)c2)c2cc[nH]c2c1=O [Example 57, 3-cyano-N-{3-[2-(6-methyl-7-oxo-6,7-dihydro-1H-pyrrolo[2,3-c]pyridin-4-yl)-4-(methylsulfonyl)phenoxy]phenyl}benzenesulfonamide]",2.2,5.3
"Cn1cc(-c2cc(S(C)(=O)=O)ccc2Oc2cccc(NCc3cccc(C#N)c3)c2)c2cc[nH]c2c1=O [Example 60, 3-[({3-[2-(6-methyl-7-oxo-6,7-dihydro-1H-pyrrolo[2,3-c]pyridin-4-yl)-4-(methylsulfonyl)phenoxy]phenyl}amino)methyl]benzonitrile]",2,7.9
"Cn1cc(-c2cc(S(C)(=O)=O)ccc2Oc2cccc(NCc3ccc(F)cc3)c2)c2cc[nH]c2c1=O [Example 62, 4-[2-{3-[(4-fluorobenzyl)amino]phenoxy}-5-(methylsulfonyl)phenyl]-6-methyl-1,6-dihydro-7H-pyrrolo[2,3-c]pyridin-7-one]",1.4,3.1
"COCCNc1cccc(Oc2ccc(S(C)(=O)=O)cc2-c2cn(C)c(=O)c3[nH]ccc23)c1 [Example 64, 4-[2-{3-[(2-methoxyethyl)amino]phenoxy}-5-(methylsulfonyl)phenyl]-6-methyl-1,6-dihydro-7H-pyrrolo[2,3-c]pyridin-7-one]",3.4,5.2
"Cn1cc(-c2cc(S(C)(=O)=O)ccc2Oc2cccc(NCC3CCCO3)c2)c2cc[nH]c2c1=O (stereo not shown) [Example 65, 6-methyl-4-[5-(methylsulfonyl)-2-{3-[(tetrahydrofuran-2-ylmethyl)amino]phenoxy}phenyl]-1,6-dihydro-7H-pyrrolo[2,3-c]pyridin-7-one]",2.1,6.9
"COc1cccc(CNc2cccc(Oc3ccc(S(C)(=O)=O)cc3-c3cn(C)c(=O)c4[nH]ccc34)c2)c1 [Example 66, 4-[2-{3-[(3-methoxybenzyl)amino]phenoxy}-5-(methylsulfonyl)phenyl]-6-methyl-1,6-dihydro-7H-pyrrolo[2,3-c]pyridin-7-one]",1.7,3.8
"Cn1cc(-c2cc(S(C)(=O)=O)ccc2Oc2cccc(NCc3cccc(F)c3)c2)c2cc[nH]c2c1=O [Example 68, 4-[2-{3-[(3-fluorobenzyl)amino]phenoxy}-5-(methylsulfonyl)phenyl]-6-methyl-1,6-dihydro-7H-pyrrolo[2,3-c]pyridin-7-one]",4.7,10
"Cn1cc(-c2cc(S(C)(=O)=O)ccc2Oc2cccc(NCc3cccc(OC(F)(F)F)c3)c2)c2cc[nH]c2c1=O [Example 69, 6-methyl-4-[5-(methylsulfonyl)-2-(3-{[3-(trifluoromethoxy)benzyl]amino}phenoxy)phenyl]-1,6-dihydro-7H-pyrrolo[2,3-c]pyridin-7-one]",1.6,4.1
"Cn1cc(-c2cc(S(C)(=O)=O)ccc2Oc2cccc(NCc3ccccc3C#N)c2)c2cc[nH]c2c1=O [Example 71, 2-[({3-[2-(6-methyl-7-oxo-6,7-dihydro-1H-pyrrolo[2,3-c]pyridin-4-yl)-4-(methylsulfonyl)phenoxy]phenyl}amino)methyl]benzonitrile]",19,33
"Cn1cc(-c2cc(S(C)(=O)=O)ccc2Oc2cccc(NCc3ccc(F)cc3Cl)c2)c2cc[nH]c2c1=O [Example 72, 4-[2-{3-[(2-chloro-4-fluorobenzyl)amino]phenoxy}-5-(methylsulfonyl)phenyl]-6-methyl-1,6-dihydro-7H-pyrrolo[2,3-c]pyridin-7-one]",4.1,7.4

# Second part, the molecule after the results:
Ki [1] [nM],Ki [2] [nM],Structure (SMILES)
1.2,3.4,"Cc1cccc(S(=O)(=O)Nc2cccc(Oc3ccc(S(C)(=O)=O)cc3-c3cn(C)c(=O)c4[nH]ccc34)c2)c1 [Example 50, 3-methyl-N-{3-[2-(6-methyl-7-oxo-6,7-dihydro-1H-pyrrolo[2,3-c]pyridin-4-yl)-4-(methylsulfonyl)phenoxy]phenyl}benzenesulfonamide]"
1.1,3.2,"Cn1cc(-c2cc(S(C)(=O)=O)ccc2Oc2cccc(NS(=O)(=O)c3ccc(S(C)(=O)=O)cc3)c2)c2cc[nH]c2c1=O [Example 54, N-{3-[2-(6-methyl-7-oxo-6,7-dihydro-1H-pyrrolo[2,3-c]pyridin-4-yl)-4-(methylsulfonyl)phenoxy]phenyl}-4-(methylsulfonyl)benzenesulfonamide]"
2.8,6.9,"Cn1cc(-c2cc(S(C)(=O)=O)ccc2Oc2cccc(NS(=O)(=O)c3ccccc3C#N)c2)c2cc[nH]c2c1=O [Example 55, 2-cyano-N-{3-[2-(6-methyl-7-oxo-6,7-dihydro-1H-pyrrolo[2,3-c]pyridin-4-yl)-4-(methylsulfonyl)phenoxy]phenyl}benzenesulfonamide]"
3.4,8.8,"Cn1cc(-c2cc(S(C)(=O)=O)ccc2Oc2cccc(NS(=O)(=O)c3ccc(C#N)cc3)c2)c2cc[nH]c2c1=O [Example 56, 4-cyano-N-{3-[2-(6-methyl-7-oxo-6,7-dihydro-1H-pyrrolo[2,3-c]pyridin-4-yl)-4-(methylsulfonyl)phenoxy]phenyl}benzenesulfonamide]"
2.4,4.7,"Cn1cc(-c2cc(S(C)(=O)=O)ccc2Oc2cccc(NS(=O)(=O)c3ccc(F)cc3Cl)c2)c2cc[nH]c2c1=O [Example 58, 2-chloro-4-fluoro-N-{3-[2-(6-methyl-7-oxo-6,7-dihydro-1H-pyrrolo[2,3-c]pyridin-4-yl)-4-(methylsulfonyl)phenoxy]phenyl}benzenesulfonamide]"
1.3,3.7,"Cn1cc(-c2cc(S(C)(=O)=O)ccc2Oc2cccc(NCc3ccc(C#N)cc3)c2)c2cc[nH]c2c1=O [Example 61, 4-[({3-[2-(6-methyl-7-oxo-6,7-dihydro-1H-pyrrolo[2,3-c]pyridin-4-yl)-4-(methylsulfonyl)phenoxy]phenyl}amino)methyl]benzonitrile]"
3.3,1.3,"CCS(=O)(=O)c1ccc(OCC2CC2(F)F)c(-c2cn(C)c(=O)c3[nH]c(C#CCN(C)C)cc23)c1 (stereo not shown) [Example 63, 4-{2-[(2,2-difluorocyclopropyl)methoxy]-5-(ethylsulfonyl)phenyl}-2-[3-(dimethylamino)prop-1-yn-1-yl]-6-methyl-1,6-dihydro-7H-pyrrolo[2,3-c]pyridin-7-one]"
2.8,4.3,"Cn1cc(-c2cc(S(C)(=O)=O)ccc2Oc2cccc(NCc3ccccc3F)c2)c2cc[nH]c2c1=O [Example 67, 4-[2-{3-[(2-fluorobenzyl)amino]phenoxy}-5-(methylsulfonyl)phenyl]-6-methyl-1,6-dihydro-7H-pyrrolo[2,3-c]pyridin-7-one]"
6.5,16,"Cc1ccc(CNc2cccc(Oc3ccc(S(C)(=O)=O)cc3-c3cn(C)c(=O)c4[nH]ccc34)c2)c(C)c1 [Example 70, 4-[2-{3-[(2,4-dimethylbenzyl)amino]phenoxy}-5-(methylsulfonyl)phenyl]-6-methyl-1,6-dihydro-7H-pyrrolo[2,3-c]pyridin-7-one]"
3.5,5.6,"Cn1cc(-c2cc(S(C)(=O)=O)ccc2Oc2cccc(NCc3cc(F)cc(F)c3)c2)c2cc[nH]c2c1=O [Example 73, 4-[2-{3-[(3,5-difluorobenzyl)amino]phenoxy}-5-(methylsulfonyl)phenyl]-6-methyl-1,6-dihydro-7H-pyrrolo[2,3-c]pyridin-7-one]"
